PubChem BioAssay (NCI)
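Step 1: Grow cells in 96-well plates. Step 2: Expose to compound for 48 hours at 5 concentrations. Step 3: Interpolate endpoints linearly; if unreached, use highest concentration. The concentration for full growth arrest is given as TGI.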

Assays:
Assay in all cases: NCI-60 cell line screen, 48 h
OVCAR-4 ovarian = tested on: OVCAR-4 ovarian
RXF 393 renal = tested on: RXF 393 renal
SF-295 CNS = tested on: SF-295 CNS
SW-620 colon = tested on: SW-620 colon
SK-MEL-5 melanoma = tested on: SK-MEL-5 melanoma
SK-OV-3 ovarian = tested on: SK-OV-3 ovarian
K-562 leukemia = tested on: K-562 leukemia
DU-145 prostate = tested on: DU-145 prostate
OVCAR-3 ovarian = tested on: OVCAR-3 ovarian

Row | SMILES | TGI (OVCAR-4 ovarian) [µM] | TGI (RXF 393 renal) [µM] | TGI (SF-295 CNS) [µM] | TGI (SW-620 colon) [µM] | TGI (SK-MEL-5 melanoma) [µM] | TGI (SK-OV-3 ovarian) [µM] | TGI (K-562 leukemia) [µM] | TGI (DU-145 prostate) [µM] | TGI (OVCAR-3 ovarian) [µM]
1 | CCN(CC)C1Oc2cc3c(cc2C(c2cc(OC)c(OC)c(OC)c2)C1C)OCO3 (stereo unspecified) | > 100 | > 44.1 | 10 | > 63.1 | 6.68 | > 61.7 | 11.1 | > 91.4 | 5.79
2 | COC(=O)C1CC23C=CCN4CC(C2C)C2(c5ccccc5NC12)C43 (stereo unspecified) | > 100 | > 100 | > 100 | > 100 | > 100 | > 100 | > 100 | > 100 | > 100
3 | COC1(OC)C=CC(=O)C=C1 | 16.7 | 4.51 | 23.9 | 3.12 | 46.2 | 26.3 | > 100 | 12.6 | 12.4
4 | Nc1ccc2c(c1)NC(=O)[C@@H]1CCCN1C2=O | > 100 | > 100 | > 100 | > 100 | > 100 | > 100 | > 100 | > 100 | > 100
5 | CC(=O)O[C@H]1CCC2[C@@H]3CCC4NC(=O)C(C#N)C[C@]4(C)C3CC[C@@]21C (stereo partly specified) | > 10 | > 10 | > 10 | > 10 | > 10 | > 10 | > 10 | > 10 | > 10
6 | C=CCOC1(CC=C)C(=O)OC2C(O)COC21O (stereo unspecified) | > 100 | > 100 | > 100 | > 100 | > 100 | > 100 | > 100 | > 100 | > 100
7 | CC(C#N)N(CCc1ccccc1)C(=O)c1ccccc1 (stereo unspecified) | > 100 | > 100 | > 100 | > 100 | > 100 | > 100 | > 100 | > 100 | > 100
8 | COC(=O)/C=c1/c2ccccc2n2c1c1ccccc1[n+]2C | 15.9 | 17.4 | 5.63 | 12.3 | 8.12 | 6.93 | > 100 | 36.3 | 21.9
9 | CC(=O)NC(=O)NC1=NCCC(=O)N1CCc1c[nH]c2ccccc12 | > 100 | > 100 | > 100 | > 100 | > 100 | > 100 | > 100 | > 100 | > 100
10 | CC1CN=C(c2ccc(CN3CCC(C4CCN(Cc5ccc(C6=NCC(C)N6)cc5)CC4)CC3)cc2)N1 (stereo unspecified) | 38.8 | 33.5 | 43.2 | 43.1 | > 100 | 53.9 | 44.8 | 30.6 | 44.5
11 | C=CCc1ccccc1C1CC2(C(=O)OC)OC1C(C(=O)OC)=C2C(=O)OC (stereo unspecified) | > 10 | > 10 | > 10 | > 10 | > 10 | > 10 | > 10 | > 10 | > 10
12 | COc1cc2c(cc1OC)C(=O)/C(=C/c1ccc(O)cc1)CC2 | > 10 | > 10 | > 10 | > 10 | > 10 | > 10 | > 10 | > 10 | > 10
13 | O=c1[nH]c2cc([N+](=O)[O-])c(Nc3c4ccccc4nc4ccccc34)c([N+](=O)[O-])c2[nH]1 | 13.9 | 10.1 | 11.2 | 14.7 | 7.65 | 24.7 | 6.96 | 8.82 | 9.33
14 | CCN1CCCn2c(=O)[nH]c3cc(Br)cc1c32 | > 100 | 54.6 | > 100 | > 100 | > 100 | > 100 | > 100 | > 100 | > 100
15 | O=C(NCCCCCCO)c1cccc2cc3ccccc3nc12 | 66.2 | 37.7 | 32.8 | > 100 | 32.9 | 47.4 | > 100 | 32 | 36.5
16 | COc1cc(C)cc2c(-c3c(O)cc(O)c4c3C[C@H](C)N[C@H]4C)cc(-c3cc(-c4c(O)cc(O)c5c4C[C@H](C)N[C@H]5C)c4cc(C)cc(OC)c4c3O)c(O)c12 | > 100 | > 100 | > 100 | > 100 | > 100 | > 100 | > 100 | > 100 | > 100
17 | N#Cc1c(N2CCN(c3ccc([N+](=O)[O-])cc3)CC2)[n+](=O)c2ccc(-c3ccc([N+](=O)[O-])cc3)cc2n1[O-] | > 100 | > 100 | > 100 | > 100 | 17.5 | > 100 | > 100 | > 100 | > 77.2

Row | SMILES | TGI (OVCAR-4 ovarian) [µM] | TGI (RXF 393 renal) [µM] | TGI (SF-295 CNS) [µM] | TGI (SW-620 colon) [µM] | TGI (SK-MEL-5 melanoma) [µM] | TGI (SK-OV-3 ovarian) [µM] | TGI (K-562 leukemia) [µM] | TGI (DU-145 prostate) [µM] | TGI (OVCAR-3 ovarian) [µM]
18 | CNC(=O)N(CCC#N)CCCN(C(=O)N(C)C)c1ccccc1 | > 100 | > 100 | > 100 | > 100 | > 100 | > 100 | > 100 | > 100 | > 100
19 | O=NN1CCCS1(=O)=O | > 100 | > 100 | > 100 | > 100 | > 100 | > 100 | > 100 | > 100 | > 100
20 | COc1cc2c(c(OC)c1)C(=O)O[C@H](C)CCCC/C=C/C2 | > 31.4 | 25.2 | > 32.2 | 22.9 | 11.2 | > 100 | > 100 | 27.1 | 28
21 | COc1cc2oc(-c3ccc4c(c3)OCO4)c(OC)c(=O)c2c(O)c1OC | > 50 | > 50 | > 50 | > 50 | > 50 | > 50 | > 50 | > 50 | > 50
22 | O=C(O)CCSC1=NCCN1 | > 100 | > 100 | > 100 | > 100 | > 100 | > 100 | > 100 | > 100 | > 100
23 | C[C@]12CC[C@H]3[C@@H](CCC4=C(Br)C(=O)C=C[C@@]43O)[C@@H]1CCC2=O | > 100 | 57.1 | > 100 | > 100 | > 100 | > 100 | > 100 | 68.7 | > 100
24 | COC(=O)[C@@H]1C=C[C@H](NC(C)=O)C1 | > 100 | > 100 | > 100 | > 100 | > 100 | > 100 | > 100 | > 100 | > 100
25 | N#C/C(=C1/c2cc([N+](=O)[O-])ccc2-c2c1cc([N+](=O)[O-])cc2[N+](=O)[O-])N1CCCCC1 | 69.7 | > 100 | > 100 | > 100 | > 100 | > 100 | > 100 | > 100 | > 100
26 | O=c1c2cc(Br)ccc2ncn1COCc1ccccc1 | > 100 | > 100 | > 100 | > 100 | > 100 | > 100 | > 100 | > 100 | > 100
27 | Nn1c(Sc2nc3ccccc3c(=O)n2N)nc2ccccc2c1=O | > 100 | 25.1 | 42.1 | 7.13 | 11.5 | 54.6 | > 100 | 56.8 | 40.3
28 | COc1cc2c(cc1O)CCN(C)[C@H]2Cc1ccc(Oc2c(O)c(OC)cc3c2C[C@H]2c4c(c(OC)c(OC)c(OC)c4-3)CCN2C)cc1 | 4.38 | 6.46 | 11.3 | 10 | 7.65 | 10.5 | 3.33 | 11.5 | 10.6
29 | CC1CN=C(c2ccc(-c3nc(-c4ccc(C5=NCC(C)N5)cc4)nc(N(C)C)n3)cc2)N1 (stereo unspecified) | 3.67 | 12.8 | 15.8 | 5.56 | 14 | 5.54 | 6 | 5.59 | 4.74
30 | NC1c2c(Cl)sc(Cl)c2C(=O)C1O (stereo unspecified) | 50.4 | 25.7 | > 100 | 50.5 | 86.6 | > 100 | > 100 | > 100 | > 100
31 | CC(=Nc1cc(Cl)cc(Cl)c1)c1ccncc1 | > 100 | > 100 | > 100 | > 100 | > 100 | > 100 | > 100 | > 100 | > 100
32 | CC1=CC[C@](C)(O)[C@@]2(C)CC[C@H]3C(=C(C)C)C(=O)C[C@]3(C)C[C@H]12 | > 50 | > 50 | > 50 | > 50 | > 50 | > 50 | 17 | > 50 | > 50
33 | CC1=NN2C(=N)/C(=C/c3ccccc3)C(=O)N=C2S1 | > 100 | > 100 | > 100 | > 100 | > 100 | > 100 | > 100 | > 100 | > 100
34 | Cc1nc2cccc(F)c2c(=O)n1-c1nnc(C(F)(F)F)s1 | > 10 | > 10 | > 10 | > 10 | > 10 | > 10 | > 10 | > 10 | > 10
